Measurements from PMC11056982, “Paraptotic Cell Death as an Unprecedented Mode of Action Observed for New Bipyridine-Silver(I) Compounds Bearing Phosphane Coligands” (Journal of Medicinal Chemistry, 2024).

Experiments:
SK-OV-3/CBP = experiment: MTT viability assay in carboplatin-resistant SK-OV-3/CBP cells; assay type: cell-based, human; details: 72 h; for relative resistance (IC50 SK-OV-3/CBP divided by IC50 SK-OV-3): resistant subline vs parental line; for IC50: MTT, carboplatin-resistant subline, mean ± SD
Protocol: (§1) Cells were seeded (2 × 10^4 cells/well for HCT116, HCT116/OxR, 3 × 10^4 cells/well for HCT116 p53KO, 4 × 10^4 cells/well for MES-OV, SK-OV-3, and their respective CBP resistant counterparts) in 100 μL/well in 96-well plates and allowed to attach for 24 h at 37 °C and 5% CO2. Compounds were first dissolved in DMSO to a 10 mM stock solution and then further diluted in a growth medium (DMSO concentration <1%). After 24 h, cells were treated with 100 μL of different drugs dilutions in triplicates with the final concentrations of 0, 0.01, 0.05, 0.075, 0.1, 0.5, 0.75, 1, 2.5, 5, 7.5, and 10 μM depending on the compound and the cell line.

MES-OV cells [1] = experiment: Mitochondrial membrane potential by JC-1 stain (flow cytometry); assay type: cell-based, human; details: 24 h
Protocol: (§2) Cells were seeded in a density of (2–4) × 10^5 cells/well in six-well plates and in 1 mL culture medium containing 10% FBS. After 24 h recovery, cells were treated with the indicated compounds and concentrations. Next, the supernatant was collected followed by trypsinization of the cells and centrifugation at 300g for 5 min. In the following protocols, cells were stained with annexin V (AV) and propidium iodide (PI) for cell death analysis, with only PI for cell cycle analysis, or with 10 μg mL^–1 JC-1 for evaluation of the mitochondrial membrane potential as previously described.[54],[55]

MES-OV/CBP = experiment: MTT viability assay in carboplatin-resistant MES-OV/CBP cells; assay type: cell-based, human; details: 72 h; for relative resistance (IC50 MES-OV/CBP divided by IC50 MES-OV): resistant subline vs parental line; for IC50: MTT, carboplatin-resistant subline, mean ± SD
Protocol: as §1

SK-OV-3 [2] = experiment: Cell death by annexin V/propidium iodide stain (flow cytometry); assay type: cell-based, human; details: SK-OV-3, 10 μM, 24 h
Protocol: as §2

MES-OV cells [3] = experiment: TEM analysis of subcellular morphology; assay type: cell-based, human; details: 24 h treatment
Protocol: MES-OV Cells were seeded (8 × 10^5 cells/mL) in […] in six-well plates. After 24 h, cells were treated with the selected compounds at the indicated concentration for another 24 h. Afterward, cells were collected, pelleted, and fixed in a solution of 2.5% glutaraldehyde and 2% paraformaldehyde in 0.1 M cacodylate buffer (pH 7.4) for 2 h at room temperature. Samples were subsequently washed 3 × 10 min in cacodylate buffer and postfixed in 1% osmium tetroxide for 1 h. After 3 × 10 min washing in cacodylate buffer, samples were dehydrated in an ethanol series (30–100%, 10 min each) and pure acetone (2 × 10 min) and gradually embedded in Epon 812 resin (Serva). Sections (40–50 nm) were prepared with a Leica UC7 ultramicrotome, mounted on copper mesh grids, and contrasted with 1% uranyl acetate (7 min) and 3% lead citrate (3 min). Imaging was performed with a Tecnai G2 20 transmission electron microscope at 80 kV equipped with an FEI Eagle 4K CCD camera (Center for Anatomy and Cell Biology). Image processing was performed in Fiji[57] using the CLAHE filter (enhance local contrast).

recombinant rat TrxR = target: T1, recombinant rat TrxR (Rattus norvegicus, UniProt O89049); experiment: Inhibition of mammalian TrxR (microplate reader-based DTNB assay); assay type: biochemical; details: cell-free assay
T1 construct: purchased Cayman Chemical
T1 sequence (O89049 1-499): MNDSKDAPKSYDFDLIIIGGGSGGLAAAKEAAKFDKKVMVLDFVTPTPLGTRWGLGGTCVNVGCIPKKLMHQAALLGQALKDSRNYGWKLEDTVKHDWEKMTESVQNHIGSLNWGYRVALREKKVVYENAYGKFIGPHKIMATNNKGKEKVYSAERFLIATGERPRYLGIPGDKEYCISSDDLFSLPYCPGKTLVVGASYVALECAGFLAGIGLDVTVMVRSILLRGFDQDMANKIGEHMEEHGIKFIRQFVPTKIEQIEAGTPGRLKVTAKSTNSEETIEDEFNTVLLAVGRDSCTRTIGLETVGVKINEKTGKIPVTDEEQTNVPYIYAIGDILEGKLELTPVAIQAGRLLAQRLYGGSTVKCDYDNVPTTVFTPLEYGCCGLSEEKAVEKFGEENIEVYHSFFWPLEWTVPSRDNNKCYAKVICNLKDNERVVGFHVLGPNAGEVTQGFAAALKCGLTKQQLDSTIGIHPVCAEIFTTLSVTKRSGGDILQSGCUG
Protocol: To determine the inhibition of mammalian TrxR, an established microplate reader-based assay was performed. For this purpose, commercially available recombinant rat TrxR (from Cayman Chemical) was used and diluted with distilled water to achieve a concentration of 0.12 U mL^–1. The compounds were freshly dissolved as stock solutions in DMSO. Aliquots (25 μL) of the enzyme solution and 25 μL of potassium phosphate buffer (pH 7.0) containing the compounds in graded concentrations (1% DMSO) were mixed. Positive controls were composed of 25 μL aliquots of the enzyme solution mixed with 25 μL 1% DMSO in buffer solution (no compounds). The final concentration of DMSO was 0.5% v/v in all samples. The blank solution was the highest used concentration of the compound in 0.5% DMSO in buffer solution (no enzyme). All resulting solutions were incubated with moderate shaking for 75 min at 37 °C in a 96-well plate. […] After proper mixing, the formation of 2-nitro-5-thiobenzoate (5-TNB) was monitored with a microplate reader at 405 nm 10 times in 35 s intervals for about 6 min. The increase in 5-TNB concentration over time followed a linear trend, and the enzymatic activities were calculated as the slopes (increase in absorbance per second) thereof. […] For the absorption measurements in the enzyme assay, a PerkinElmer 2030 Multilabel Reader VICTORTMX4 was used.

MES-OV cells [4] = experiment: Phase-contrast microscopy of cytoplasmic vacuoles; assay type: cell-based, human; details: 6 and 24 h treatment
Protocol: Cells were seeded 5 × 10^5/well in six-well plates after 24 h recovery treatment with compounds 1, 4, and 7 was performed with the indicated concentrations. After 6 and 24 h, phase-contrast images of the cells were taken with a Zeiss Primovert microscope (20× magnification). To determinate the percentage of vacuolated cells, images (three images each condition) were analyzed by ImageJ, and vacuolated cells were counted.

[5] = Stability in PBS by LC-ESI(+)-HRMS/MS; assay type: physicochemical; details: 80 μM in PBS, monitored 48 h
Protocol: For the stability evaluation in PBS, 10 mM solutions of complexes 1, 4, and 7 were first prepared in DMSO. Two microliters of this solution were then added to PBS (250 μL) for a total concentration of 80 μM. Following centrifugation for 10 min at 3000 rpm, the resulting solutions were monitored by LC-ESI(+)-MS and LC-ESI(+)-HRMS for a period of 48 h.

MES-OV cells [6] = experiment: ROS detection by DCF-DA flow cytometry in MES-OV; assay type: cell-based, human; details: 24 h; for ROS levels increase (peak): 2.5 μM
Protocol: Cells were seeded 5 × 10^5 cells/mL in six-well plates. After 24 h treatment with the indicated concentration, cells were incubated with 10 μM 2′,7′-dichlorofluorescein diacetate (DCFH-DA, Sigma-Aldrich) in Hank’s balanced salt solution for 1 h at 37 °C. Subsequently, flow cytometry (with BD LSR Fortessa instrument, BD Biosciences, Franklin Lakes, NJ, USA) was performed to measure the median fluorescence signal of 20,000 single cells per sample. FlowJo (BD Biosciences, San Jose, CA, USA) and GraphPad Prism software (GraphPad Software Inc., San Diego, CA, USA) were to analyze the data.

HCT116 WT/OxR = experiment: MTT viability assay in oxaliplatin-resistant HCT116 WT/OxR cells; assay type: cell-based, human; details: 72 h; for relative resistance (IC50 HCT116 WT/OxR divided by IC50 HCT116 WT): resistant subline vs parental line; for IC50: MTT, oxaliplatin-resistant subline, mean ± SD
Protocol: as §1

SK-OV-3 and MES-OV cells = experiment: Cell cycle distribution (PI stain, flow cytometry); assay type: cell-based, human; details: 10 μM, 24 h
Protocol: as §2

MES-OV = experiment: MTT viability assay in MES-OV ovarian carcinoma cells; assay type: cell-based, human; details: for cancer cells killed at lowest tested concentration: MES-OV, 0.05 μM; for cancer cells killed at lowest tested concentration / IC50: 72 h; for IC50: MTT, mean ± SD
Protocol: as §1

SK-OV-3 [7] = experiment: MTT viability assay in SK-OV-3 ovarian carcinoma cells; assay type: cell-based, human; details: 72 h, mean ± SD of three independent experiments
Protocol: as §1

HCT116 WT = experiment: MTT viability assay in HCT116 WT colon carcinoma cells; assay type: cell-based, human; details: 72 h, mean ± SD
Protocol: as §1

HCT116 p53KO = experiment: MTT viability assay in p53-deleted HCT116 p53KO cells; assay type: cell-based, human; details: 72 h, p53-deleted subclone, mean ± SD
Protocol: as §1

F331 = experiment: MTT viability assay in nonmalignant fibroblasts F331; assay type: cell-based, human; details: 72 h, mean ± SD

| Compound | relative resistance (IC50 SK-OV-3/CBP divided by IC50 SK-OV-3) (SK-OV-3/CBP) | cells with mitochondrial depolarization (low Δψ fraction) (MES-OV cells [1]; 10 μM) [%] | relative resistance (IC50 MES-OV/CBP divided by IC50 MES-OV) (MES-OV/CBP) | vacuole diameter (TEM) (MES-OV cells [3]) | TrxR inhibition strength relative to 7 (recombinant rat TrxR) [fold] | cytoplasmic vacuole formation (phase contrast) (MES-OV cells [4]) | stability in PBS [5] | relative resistance (IC50 HCT116 WT/OxR divided by IC50 HCT116 WT) (HCT116 WT/OxR) | cancer cells killed at lowest tested concentration (MES-OV) | ROS levels increase (peak) (MES-OV cells [6]) [fold] | IC50 (SK-OV-3 [7]) [nM] | IC50 (SK-OV-3/CBP) [nM] | IC50 (HCT116 WT) [nM] | IC50 (MES-OV/CBP) [nM] | IC50 (MES-OV) [nM] | IC50 (HCT116 WT/OxR) [nM] | IC50 (HCT116 p53KO) [nM] | IC50 (F331) [nM] | other results |
| --- | --- | --- | --- | --- | --- | --- | --- | --- | --- | --- | --- | --- | --- | --- | --- | --- | --- | --- | --- |
| O=S(=O)([O-])C(F)(F)F.[Ag+].c1ccc(-c2ccccn2)nc1.c1ccc(P(c2ccccc2)c2ccccc2)cc1 [Compound 1, [Ag(2,2′-bipy)(PPh3)][CF3SO3]] | 1.6^n.s. | 50 | 1.0^n.s. | 300–500 nm | 10 | distinctly fewer vesicles of smaller and distinctive shapes | an equilibrium is established between the parent complex and AgP2 and AgN2 species | 0.7^n.s. |  |  |  |  |  |  |  |  |  |  | apoptosis induction (AV/PI) (SK-OV-3 [2]): up to 100%; ROS levels (in words) (MES-OV cells [6]): significant and very strong elevation in ROS was found only in the 10 μM sample; cell cycle distribution change (SK-OV-3 and MES-OV cells): significant shift from the G0–G1 phase to the S phase |
| O=S(=O)([O-])C(F)(F)F.[Ag+].c1ccc(-c2ccccn2)nc1.c1ccc(P(CCP(c2ccccc2)c2ccccc2)c2ccccc2)cc1 [Compound 4, [Ag(2,2′-bipy)(dppe)][CF3SO3]] | 0.8^n.s. | 50 |  | 300–1500 nm | 10 | induced pronounced cytoplasmic vacuoles only after 24 h incubation | immediate rearrangement of the ligands to afford a mixture between AgP2 and AgN2 species | 0.9^n.s. | more than 50% | ~5 |  |  |  |  |  |  |  |  |  |
| [Ag(4,4′-CH2OH-2,2′-bipy)(dppe)][CF3SO3] [Compound 6] | 0.8^n.s. |  |  |  |  |  |  | 0.8^n.s. | more than 50% |  | 6500 ± 1660 | 5520 ± 2200 | 640 ± 60 | < 50 | < 50 | 540 ± 110 | 490 ± 140 | > 10000 |  |
| [Ag(4,4′-CH3-2,2′-bipy)(dppe)][CF3SO3] [Compound 5] | 0.9^n.s. |  | 1.0^n.s. |  |  |  |  | 1.0^n.s. |  |  | 6860 ± 1550 | 6500 ± 1290 | 740 ± 60 | 60 ± 30 | 60 ± 30 | 750 ± 80 | 430 ± 50 | 8520 ± 900 |  |
| [Ag(dppe)2][CF3SO3] [Compound 7] |  | 90 |  |  |  | formation of cytoplasmic vacuoles near the nucleus within the cytoplasm was observed | stable under these conditions | 1.1^n.s. |  | ~5 |  | 5970 ± 1420 | 350 ± 40 | 50 ± 20 | < 50 | 380 ± 50 | 340 ± 10 | 5780 ± 500 | cells with mitochondrial depolarization (low Δψ fraction) (MES-OV cells [1]; 1 μM): 30%; activity relative to 4 after 24 h (MES-OV; 24 h MTT (Table S2)): about twofold more active than 4; diameter of big vacuoles (TEM) (MES-OV cells [3]): up to 7.5 μm |
